# Assay results reported in patent publication US9682089B2, “Methods and compositions for stimulating reepithelialisation during wound healing” (Institut National de la Sante et de la Recherche Medicale …, priority 2010, dated 2017).
# What was measured:
# ENaC = assay: real-time PCR analysis of ENaC subunit gene expression in skin of K5-MR neonates; type: in vivo, mouse; details: K5-MR pups; pregnant mice were given canrenoate
# Source text: We took advantage of the K5-MR mouse model to question whether expression of ENaC and its main regulators may be altered by MR overexpression. Skin samples from control and K5-MR neonates were processed for real-time PCR analysis of gene expression.
# [1] = tested on: keratinocyte outgrowth of skin explants; assay: ex vivo wound healing assay: organotypic culture of newborn mouse skin explants, keratinocyte outgrowth; type: cell-based; details: 0.1 mM in culture medium, 7 days culture
compound,measurement,setting,value
C[C@]12CCC(=O)C=C1C=C[C@@H]1[C@@H]2CC[C@@]2(C)[C@H]1CC[C@@]2(O)CCC(=O)O [potassium canrenoate],enhanced skin mRNA expression of all 3 subunits of ENaC (abnormal pattern of expression),ENaC,blunted
same,impaired keratinocyte outgrowth of the explants,[1]; skin explants from K5-MR pups (MR overexpression in basal keratinocytes),partially but significantly improved
same,keratinocyte outgrowth of the explants,[1]; skin explants from control pups,no effect
